This is an account of results in patent US20140377870A1 (priority 2010, published 2014).

In data set [1] the test system is cells not expressing the HSV-TK gene. The settings on record: cited from earlier work.
Data set [2] concerns ES cells. To be noted: cited from earlier work.
Data set [3] concerns VACVΔE3L::GyrB-PKR. Format: cell-based, vaccinia virus.
In data set [4] the test system is VACVΔE3L. The class given is cell-based, vaccinia virus.
Data set [5] concerns VACVΔE3L::GyrB-PKRK296H. Format: cell-based, vaccinia virus.
Data set [6] has as its system VACVΔJ2R::GyrB-PKR. The class given is cell-based, vaccinia virus.

With `Nc1nc(O)c2ncn(COC(CO)CO)c2n1` [GCV, ganciclovir], the nonspecific toxicity entry in data set [1] is on record as “nonspecific toxicity”. Further, the “totipotency of ES cells” value in data set [2] is “reduce the totipotency”.

As for Coumermycin A1, the “coumermycin concentration at which sensitivity of the virus was observed” value in data set [3] is “greater than 5 ng/ml”. Further, the “sensitivity of virus to coumermycin” value in data set [4] and in data set [5] was “resistant to all doses” throughout. Besides, the “sensitivity to coumermycin compared to untreated cells” value in data set [6] is listed as “at least 100,000 fold”.
